The nature of series [1]: Lipophilicity, logD of the compound. The conditions noted are these: octanol/water. It counts as physicochemical.
The target in series [2] is Potassium voltage-gated channel subfamily KQT member 2 (Homo sapiens) (UniProt O43526). As to the kind of experiment: Agonist activity at human KCNQ2 expressed in CHO cells assessed as increase in outward current at 10 uM at 50 mV by patch clamp electrophysiology method. In kind it is cell-based. The conditions noted are these: filed as agonist. Background: The patch-clamp technique gives a direct electrical read-out from membranes.
Chain of Potassium voltage-gated channel subfamily KQT member 2 (Homo sapiens) (O43526 whole entry): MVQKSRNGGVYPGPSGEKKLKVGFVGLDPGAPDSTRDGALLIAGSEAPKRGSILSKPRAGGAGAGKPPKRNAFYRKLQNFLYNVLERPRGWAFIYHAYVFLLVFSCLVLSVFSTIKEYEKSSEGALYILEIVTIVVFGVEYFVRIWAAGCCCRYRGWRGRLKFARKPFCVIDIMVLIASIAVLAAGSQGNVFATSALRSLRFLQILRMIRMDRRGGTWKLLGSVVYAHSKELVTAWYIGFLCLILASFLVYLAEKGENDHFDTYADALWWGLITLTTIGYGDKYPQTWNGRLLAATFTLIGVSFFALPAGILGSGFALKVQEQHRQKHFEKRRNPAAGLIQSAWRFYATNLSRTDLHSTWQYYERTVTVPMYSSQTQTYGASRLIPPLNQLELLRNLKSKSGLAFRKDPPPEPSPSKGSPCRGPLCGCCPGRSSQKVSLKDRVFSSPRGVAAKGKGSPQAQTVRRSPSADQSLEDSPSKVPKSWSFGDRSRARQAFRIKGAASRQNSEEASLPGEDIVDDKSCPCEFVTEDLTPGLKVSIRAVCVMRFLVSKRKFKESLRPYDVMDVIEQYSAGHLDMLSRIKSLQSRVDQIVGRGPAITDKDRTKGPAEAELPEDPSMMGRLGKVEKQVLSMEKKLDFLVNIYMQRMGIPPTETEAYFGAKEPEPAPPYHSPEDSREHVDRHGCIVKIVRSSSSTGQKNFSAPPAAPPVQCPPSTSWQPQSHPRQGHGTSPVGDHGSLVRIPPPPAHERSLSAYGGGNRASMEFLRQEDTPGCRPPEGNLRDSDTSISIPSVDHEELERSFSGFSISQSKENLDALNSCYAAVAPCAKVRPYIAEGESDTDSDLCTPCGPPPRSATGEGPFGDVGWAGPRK

In series [3] the target is T1, Potassium channel subfamily K member 2 (Homo sapiens) (UniProt O95069).
T1 sequence (whole entry): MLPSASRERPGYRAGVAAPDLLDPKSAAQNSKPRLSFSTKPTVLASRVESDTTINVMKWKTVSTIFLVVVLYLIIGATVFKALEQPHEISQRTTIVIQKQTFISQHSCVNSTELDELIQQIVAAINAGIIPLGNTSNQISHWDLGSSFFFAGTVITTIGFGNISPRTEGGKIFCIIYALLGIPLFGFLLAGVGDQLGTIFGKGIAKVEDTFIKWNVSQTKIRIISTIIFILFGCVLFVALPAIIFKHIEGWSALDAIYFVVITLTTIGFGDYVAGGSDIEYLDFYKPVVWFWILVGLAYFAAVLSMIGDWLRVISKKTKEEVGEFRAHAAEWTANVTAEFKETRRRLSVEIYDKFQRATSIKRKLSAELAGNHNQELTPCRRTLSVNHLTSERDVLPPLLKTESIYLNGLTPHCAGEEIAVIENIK
As to the kind of experiment: Activation of human TREK-1 expressed in CHO cells at 10 uM in presence of ML335 by patch clamp electrophysiology method. It counts as cell-based. The settings on record: filed as activator.

Series [4] deals with T2, Potassium voltage-gated channel subfamily KQT member 4 (Homo sapiens, UniProt P56696).
T2 sequence (P56696 whole entry): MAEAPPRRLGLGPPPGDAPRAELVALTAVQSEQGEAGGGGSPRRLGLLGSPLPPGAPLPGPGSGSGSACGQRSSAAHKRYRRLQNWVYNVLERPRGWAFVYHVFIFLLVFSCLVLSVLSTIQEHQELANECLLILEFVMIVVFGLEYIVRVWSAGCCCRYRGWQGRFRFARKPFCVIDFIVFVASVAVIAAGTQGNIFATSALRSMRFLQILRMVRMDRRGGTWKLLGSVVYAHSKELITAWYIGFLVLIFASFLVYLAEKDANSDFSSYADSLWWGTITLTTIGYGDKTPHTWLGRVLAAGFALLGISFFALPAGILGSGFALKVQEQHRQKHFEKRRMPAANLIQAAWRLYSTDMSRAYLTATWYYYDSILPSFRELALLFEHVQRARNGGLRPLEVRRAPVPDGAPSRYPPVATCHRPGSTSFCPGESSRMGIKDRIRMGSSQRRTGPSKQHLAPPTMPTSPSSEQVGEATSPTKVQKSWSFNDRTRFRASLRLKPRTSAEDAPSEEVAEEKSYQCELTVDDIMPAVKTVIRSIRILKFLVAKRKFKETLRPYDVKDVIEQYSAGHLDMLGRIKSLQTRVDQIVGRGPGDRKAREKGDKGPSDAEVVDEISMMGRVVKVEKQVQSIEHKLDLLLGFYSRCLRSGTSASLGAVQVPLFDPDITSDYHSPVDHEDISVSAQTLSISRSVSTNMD
As to the kind of experiment: Agonist activity at human KCNQ4 channel expressed in CHO cells assessed as increase in outward current by patch clamp electrophysiology method. It counts as cell-based.

The target of series [5] is Potassium voltage-gated channel subfamily KQT member 5 (Homo sapiens, UniProt Q9NR82). As to the kind of experiment: Agonist activity at human KCNQ5 channel expressed in CHO cells assessed as increase in outward current by patch clamp electrophysiology method. In kind it is cell-based.
Chain of Potassium voltage-gated channel subfamily KQT member 5 (Q9NR82 whole entry): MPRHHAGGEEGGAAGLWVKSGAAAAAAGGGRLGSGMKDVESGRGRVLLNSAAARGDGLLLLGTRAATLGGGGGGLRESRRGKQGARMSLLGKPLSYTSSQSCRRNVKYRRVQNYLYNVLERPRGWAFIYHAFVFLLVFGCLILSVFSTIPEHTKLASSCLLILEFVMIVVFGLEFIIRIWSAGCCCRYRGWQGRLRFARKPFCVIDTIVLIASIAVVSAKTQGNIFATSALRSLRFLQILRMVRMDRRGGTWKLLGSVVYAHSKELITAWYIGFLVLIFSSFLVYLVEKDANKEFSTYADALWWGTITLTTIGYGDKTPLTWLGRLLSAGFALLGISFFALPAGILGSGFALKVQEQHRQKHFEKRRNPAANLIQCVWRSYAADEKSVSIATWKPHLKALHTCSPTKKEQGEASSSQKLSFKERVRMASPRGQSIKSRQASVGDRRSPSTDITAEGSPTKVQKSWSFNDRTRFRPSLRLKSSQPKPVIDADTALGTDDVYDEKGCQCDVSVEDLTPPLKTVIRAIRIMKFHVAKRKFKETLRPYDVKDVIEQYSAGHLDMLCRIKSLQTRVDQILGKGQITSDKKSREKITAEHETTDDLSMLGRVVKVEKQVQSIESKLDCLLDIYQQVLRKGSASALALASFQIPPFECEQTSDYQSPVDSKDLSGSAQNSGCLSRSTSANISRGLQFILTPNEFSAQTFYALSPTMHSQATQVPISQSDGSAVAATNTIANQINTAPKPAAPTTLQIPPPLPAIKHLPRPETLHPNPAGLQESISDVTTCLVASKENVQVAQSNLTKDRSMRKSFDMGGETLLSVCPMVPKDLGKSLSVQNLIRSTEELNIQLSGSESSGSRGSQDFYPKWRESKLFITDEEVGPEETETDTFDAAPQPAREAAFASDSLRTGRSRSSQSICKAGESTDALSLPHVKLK

Experimental findings from ChEMBL document CHEMBL5120947, “General Pharmacological Activation Mechanism of K+ Channels Bypassing Channel Gates” (J Med Chem, 2022) are described below.

A word on the logD: it is lipophilicity at a set pH, counting ionised and neutral species. Usually EC50 stands for the concentration giving half of the maximal effect.

Activity calls are given as the source filed them. No cut-off for these calls is given here.

In series [1], `Cc1ccc(CSCc2nnc(SCC(=O)Nc3ccc(Br)cc3F)n2C)cc1` came in with a logD of 4.38. As to `O=C(Nc1ccc(Cl)nc1)c1ccc(F)cc1`, the result in series [2] was Active. On to `O=C(O)c1ccccc1Nc1ccc(CCc2ccc(Cl)c(Cl)c2)cc1`, for which the outcome in series [3] was Active. Still for that read-out and setting: under `c1ccc(-c2nnn[nH]2)c(Nc2cccc3c2CCCC3)c1` stands “Active”.

`Cc1ccc(CSCc2nnc(SCC(=O)Nc3ccc(Br)cc3I)n2C)cc1` returned a logD in series [1] of 4.66. As to `Cc1ccc(CSCc2nnc(SCC(=O)Nc3ccc(Br)cc3Br)n2C)cc1`, the results for the concentration for a half-maximal effect (EC50) in series [4] and in series [5] were 6.4 µM and 4.5 µM, respectively. The compound further came in with a log distribution coefficient (logD) in series [1] of 4.79.
